≈ marks a conversion by molar mass, not a printed value.
Tested on: A549
Assay: Cytotoxicity against human A549 cells after 48 hrs by MTT assay
Assay type: functional, cell-based
Settings: A549, 48 h

Which IC50 does the source give for `CC(C)=CCC[C@@](C)(O)[C@H]1CC[C@]2(C)[C@@H]1[C@H](O)C[C@@H]1[C@@]3(C)C[C@@H](O)[C@H](O[C@@H]4O[C@H](CO)[C@@H](O)[C@H](O)[C@H]4O[C@@H]4O[C@H](CO)[C@@H](O)[C@H](O)[C@H]4O)C(C)(C)[C@@H]3CC[C@]12C` here?
Its IC50 is 51 µg/mL (≈ 63.6 µM).

`CC(C)=CCC[C@](C)(O[C@@H]1O[C@H](CO)[C@@H](O)[C@H](O)[C@H]1O)[C@H]1CC[C@]2(C)[C@@H]1[C@H](O)C[C@@H]1[C@@]3(C)C[C@@H](O)[C@H](O[C@@H]4O[C@H](CO)[C@@H](O)[C@H](O)[C@H]4O[C@@H]4O[C@H](CO)[C@@H](O)[C@H](O)[C@H]4O)C(C)(C)[C@@H]3CC[C@]12C` was tested. Which IC50 did it give?
Its IC50 is 52.6 µg/mL (≈ 54.6 µM).

For `CC(C)=CCC[C@](C)(O[C@@H]1O[C@H](CO[C@@H]2OC[C@@H](O)[C@H](O)[C@H]2O)[C@@H](O)[C@H](O)[C@H]1O)[C@H]1CC[C@]2(C)[C@@H]1[C@H](O)C[C@@H]1[C@@]3(C)C[C@@H](O)[C@H](O[C@@H]4O[C@H](CO)[C@@H](O)[C@H](O)[C@H]4O[C@@H]4O[C@H](CO)[C@@H](O)[C@H](O)[C@H]4O)C(C)(C)[C@@H]3CC[C@]12C`, which IC50 is on record?
Its IC50 is 106 µg/mL (≈ 96.7 µM).

Which IC50 does the source give for `CC(C)=CCC[C@](C)(O)[C@H]1CC[C@]2(C)[C@@H]1[C@H](O)C[C@@H]1[C@@]3(C)C[C@@H](O)[C@H](O)C(C)(C)[C@@H]3CC[C@]12C` here?
The IC50 was 12.5 µg/mL (≈ 26.3 µM).

`CC(C)=CCC[C@](C)(O)[C@H]1CC[C@]2(C)[C@@H]1[C@H](O)C[C@@H]1[C@@]3(C)C[C@@H](O)[C@H](O[C@@H]4O[C@H](CO)[C@@H](O)[C@H](O)[C@H]4O[C@@H]4O[C@H](CO)[C@@H](O)[C@H](O)[C@H]4O)C(C)(C)[C@@H]3CC[C@]12C` was tested. Which IC50 did it give?
The IC50 was 34.9 µg/mL (≈ 43.6 µM).

With `CC(C)=CCC[C@](C)(O)[C@H]1CC[C@]2(C)[C@@H]1[C@H](O)C[C@@H]1[C@@]3(C)CC[C@H](O[C@@H]4O[C@H](CO)[C@@H](O)[C@H](O)[C@H]4O[C@@H]4O[C@H](CO)[C@@H](O)[C@H](O)[C@H]4O)C(C)(C)[C@@H]3CC[C@]12C` as the compound, how does the IC50 read?
The IC50 was 55.4 µg/mL (≈ 70.5 µM).

— ChEMBL document CHEMBL3098090, “Cytotoxic activity of gypenosides and gynogenin against non-small cell lung carcinoma A549 cells” (Bioorg Med Chem Lett, 2014)
